Marks after values point to notes of the source that are not given here.
Columns and labels:
[1] = system: histamine-induced scratching behavior; test: Antipruritic activity in histamine-induced scratching model, dose response (Experiment 3 (1)); format: in vivo, mouse
Experimental: (1) [Antipruritic Activity of Test Compound in Histamine-Induced Scratching Model]
After topical administration of a solution (50 μL) of test compound (0.3 to 3% w/v solution of Compound A in acetone, or 0.03 to 0.3% w/v solution of cipamfylline in acetone), or a vehicle (acetone; 50 μL) onto right dorsal neck of ICR female mice similarly pre-treated as described in Experiment 1, these animals were placed into a testing apparatus (MicroAct). After one hour of the administration of said test compound solution or vehicle, a solution (50 μL) of histamine in saline (300 nmol/50 μL) or saline (50 μL; control group) was intradermally administered to right dorsal neck of each mouse. Immediately after the administration, scratching behavior (counts of scratching) was measured for 30 minutes by the testing apparatus (MicroAct).

[2] = system: oxazolone-induced inflammatory reactions of right ear auricle; test: Chronic oxazolone-induced dermatitis model: ear auricle thickness (Experiment 4); format: in vivo, mouse; settings: Compound A 1%, Tacrolimus 0.1%, Dexamethasone 0.01% w/v in 0.25% oxazolone
Experimental: (§1) [Antipruritic Effect of Test Compound in Chronic Oxazolone-Induced Dermatitis Model]
(§2) A magnet for measurement was implanted into an instep part of right hindlimb of BALB/c male mouse (fed for one week from five-week old; Charles River Laboratories, Japan Inc.) under anesthesia, and on the same day, sensitization was carried out by topically administering 0.5% w/v solution (10 μL) of oxazolone in acetone respectively onto the both sides of right ear auricle of the animal (sensitization day). On each point of the 7th, 9th, 11th, 14th and 16th day reckoned from the day after the sensitization (1st day), each mouse was challenged by topical administration of a 10 μL solution of test compound [acetone (vehicle-treated group), 0.25% w/v solution of oxazolone in acetone (oxazolone-treated group), or a test compound solubilized in 0.25% w/v oxazolone solution in acetone (test compound-treated group)] onto the both sides of right ear auricle of the animal to produce inflammatory reactions. Immediately after the administration, scratching behavior (counts of scratching) was measured for two hours by MicroAct. Thickness of right ear auricle of each mouse was measured by a thickness gauge before and 24 hours after the topical administration of each test compound solution. The percentage described in the Table means “% w/v”.

PDE4 = PDE4 inhibitory activity measured by a conventional manner; format: biochemical
Experimental: (§3) Ratio of inhibition rate on scratching behavior of each test compound to that of Compound A was calculated as antipruritic activity (%). For reference, PDE4 inhibitory activity of each compound (IC50) which was measured by a conventional manner is also shown in such Table.

[3] = system: histamine-induced scratching behavior; test: Antipruritic effect in histamine-induced scratching model (Experiment 2); format: in vivo, mouse
Experimental: [Antipruritic Effect of Test Compound in Histamine-Induced Scratching Model]
After topical administration of a 3% w/v solution of a test compound or a reference compound as described in the following Table 6 in acetone (50 μL) or a vehicle (acetone; 50 μL) onto right dorsal neck of ICR female mice similarly pre-treated as described in Experiment 1, these animals were placed into a testing apparatus (MicroAct). After one hour of the administration of said compound solution or vehicle, a solution (50 μL) of histamine in saline (300 nmol/50 μL) or saline (50 μL) was intradermally administered to right dorsal neck of each mouse. Immediately after the administration, scratching behavior (counts of scratching) was measured for 30 minutes by MicroAct.
Inhibition rate on scratching behavior of each test compound was evaluated in terms of the following formula based on the counts of scratching in the test group in which each test compound solution was administered followed by administration of a histamine solution in saline (counts of scratching in compound-treated group), and the counts of scratching in the test group in which a vehicle (acetone) was administered followed by administration of a histamine solution in saline (counts of scratching in vehicle-treated group).
as §3

[4] = system: oxazolone-induced scratching behavior; test: Chronic oxazolone-induced dermatitis model: scratching behavior (Experiment 4); format: in vivo, mouse; settings: for Counts of scratching (Mean ± standard error): Compound A 1%, Tacrolimus 0.1%, Dexamethasone 0.01% w/v in 0.25% oxazolone
Experimental: as §1, §2

[5] = system: spontaneous locomotor activity; test: Effect on spontaneous locomotor activity (Experiment 3 (2)); format: in vivo, mouse; settings: for Spontaneous locomotor activity (Mean): measured from 1 h after administration
Experimental: (2) [Effect of Test Compound on Spontaneous Locomotor Activity] The same solution (50 μL) of test compound or a vehicle (50 μL) as described in the above-mentioned (1) was administered onto right dorsal neck of ICR female mice similarly pre-treated as described in Experiment 1. After one hour of the administration of the test compound solution or vehicle, these animals were placed into an apparatus for measuring spontaneous locomotor activity (SCANET, Melquest Ltd.), and their locomotor activity was measured for 30 minutes.

IC50 (PDE4): 3 nM
Spontaneous locomotor activity (Mean) ([5]; 0.3% w/v in acetone 50 μL topical): 5814 counts/30 min.
Spontaneous locomotor activity (Mean) ([5]; 1% w/v in acetone 50 μL topical): 5779 counts/30 min.
Spontaneous locomotor activity (Mean) ([5]; 3% w/v in acetone 50 μL topical): 6260 counts/30 min.
Structure (SMILES): COc1cc2cc(CO)c(CO)c(-c3ccnc(N4CC[C@H](O)c5ccccc54)c3)c2cc1OC [Compound A, 1-[2-(4S)-4-hydroxy-1,2,3,4-tetrahydroquinolin-1-yl]-4-pyridyl]-2,3-bis(dihydroxymethyl)-6,7-dimethoxynaphthalene sesquihydrate]
Counts of scratching (Mean) ([1]; 0.3% w/v in acetone 50 μL topical 1 h before histamine 300 nmol/50 μL): 634 beats/30 min.
Counts of scratching (Mean) ([1]; 1% w/v in acetone 50 μL topical 1 h before histamine 300 nmol/50 μL): 611 beats/30 min.
Counts of scratching (Mean) ([1]; 3% w/v in acetone 50 μL topical 1 h before histamine 300 nmol/50 μL): 314 beats/30 min.
Ear auricle thickness (Mean) ([2]; 7th day): 0.35 mm
Ear auricle thickness (Mean) ([2]; 8th day): 0.44** mm
Ear auricle thickness (Mean) ([2]; 9th day): 0.39** mm
Ear auricle thickness (Mean) ([2]; 10th day): 0.46** mm
Ear auricle thickness (Mean) ([2]; 11th day): 0.44** mm
Ear auricle thickness (Mean) ([2]; 12th day): 0.48** mm
Ear auricle thickness (Mean) ([2]; 14th day): 0.44** mm
Ear auricle thickness (Mean) ([2]; 15th day): 0.54** mm
Ear auricle thickness (Mean) ([2]; 16th day): 0.47** mm
Ear auricle thickness (Mean) ([2]; 17th day): 0.50** mm
Ear auricle thickness (Mean) ([2]; sensitization day, BALB/c male mouse): 0.27 mm
Antipruritic activity (ratio of inhibition rate on scratching behavior to that of Compound A) ([3]; 3% w/v in acetone 50 μL topical 1 h before histamine 300 nmol/50 μL, ICR female mice, counts for 30 minutes): 100%
antipruritic effect in histamine-induced scratching model, result in words ([3]; 3% w/v topical, histamine 300 nmol/50 μL): remarkable antipruritic effect
Counts of scratching (Mean ± standard error) ([4]; 7th day, BALB/c male mouse): 931 ± 135 (**) beats/2 hr.
Counts of scratching (Mean ± standard error) ([4]; 9th day): 664 ± 99 (**) beats/2 hr.
Counts of scratching (Mean ± standard error) ([4]; 11th day): 577 ± 77 (*) beats/2 hr.
Counts of scratching (Mean ± standard error) ([4]; 14th day): 863 ± 122 (**) beats/2 hr.
inhibitory effect on the counts of scratching (antipruritic effect), result in words ([4]; 16th day): inhibitory effect on the counts of scratching
Counts of scratching (Mean ± standard error) ([4]; 16th day): 959 ± 166 (*) beats/2 hr.
spontaneous locomotor activity lowering effect at a dose producing antipruritic effect, result in words ([5]; Compound A 3% w/v, cipamfylline 0.3% w/v): did not show spontaneous locomotor activity lowering effect

Source: patent US20140121240A1, “NOVEL PHARMACEUTICAL COMPOSITION” (MARUHO CO., LTD., priority 2011, published 2014)
